Results: paper PMC8951750, “In Vitro Anticancer and Cancer-Preventive Activity of New Triterpene Glycosides from the Far Eastern Starfish Solaster pacificus” (Marine Drugs, 2022)

Columns and labels:
[1] = tested on: non-cancerous mouse epidermal cells JB6 Cl41; assay: Cell viability, MTS assay, JB6 Cl41; type: cell-based; conditions: Mus musculus, JB6 Cl41, 24 h, MTS assay, 24 h, normal cells; read-out: IC50, cell viability JB6 Cl41
Procedure: (§1) MTS assay was used to measure the cell viability of tested normal and cancer cells. Cells were seeded into 96-well plates (“Jet Biofil”, Guangzhou, China) at density of 1.0 × 10^4/200 µL for 24 h at 37 °C in a 5% CO2 incubator. Then, cell monolayer was treated either with DMSO (control) or various concentrations of the triterpene glycosides 1–9 from S. pacificus (0.1, 0.5, 2.5, 12.5, 62.5 µM) in fresh appropriate culture medium for 24 h. Subsequently, the cells were incubated with 15 µL of 3-(4,5-dimethylthiazol-2-yl)-5-(3-carboxymethoxyphenyl)-2-(4-sulfophenyl)-2H-tetrazolium (MTS reagent) (“Promega”, Madison, WI, USA) for 3 h, and the absorbance of each well was measured at 490/630 nm using Power Wave XS microplate reader (“BioTek”, Wynusky, VT, USA). The concentration at which the compounds exert half of their maximal inhibitory effect on cell viability (IC50) was calculated by the AAT-Bioquest® online calculator [39]. The selectivity index (SI) was calculated as described previously using the following formula SI = IC50 of the compounds in normal cell (JB6 Cl41)/IC50 of the same compounds in human melanoma cell lines (SK-MEL-2, SK-MEL-28, or RPMI-7951).

[2] = tested on: human melanoma cells SK-MEL-2; assay: Cell viability, MTS assay, SK-MEL-2; type: cell-based; conditions: Homo sapiens, SK-MEL-2, 24 h, MTS assay, 24 h; read-out: IC50, cell viability SK-MEL-2
Procedure: as §1

[3] = tested on: human melanoma cells SK-MEL-28; assay: Cell viability, MTS assay, SK-MEL-28; type: cell-based
Procedure: as §1

[4] = tested on: human melanoma cells RPMI-7951; assay: Cell viability, MTS assay, RPMI-7951; type: cell-based; conditions: Homo sapiens, RPMI-7951, 24 h, MTS assay, 24 h; read-out: IC50, cell viability RPMI-7951
Procedure: as §1

[5] = tested on: Human erythrocytes (O(I)+); assay: Hemolysis assay; type: cell-based; conditions: 1 h, 37 °C, PBS pH 7.4
Procedure: Human erythrocytes (O(I)+) were obtained from Vladivostok blood transfusion station. Erythrocytes were centrifuged with PBS (pH 7.4) for 5 min at 4 °C by 450× g on a LABOFUGE 400R (Heraeus, Hanau, Germany) centrifuge three times. Then, the residue of erythrocytes was resuspended in ice-cold PBS (pH 7.4) to a final optical density of 2.0 at 700 nm and kept on ice. For the hemolytic assay, 180 µL of erythrocyte suspension was mixed with 20 µL of Cucumarioside A2-2 (positive control) and investigated compounds at concentrations range of 0.1, 0.5, 1, 5, 10 µM in V-bottom 96-well plates. After 1 h of incubation at 37 °C, plates were centrifuged at 900× g for 10 min on an LMC-3000 (Biosan, Riga, Latvia) laboratory centrifuge. Then, we carefully selected 100 µL of supernatant and transferred it to new flat plates, respectively. Lysis of erythrocytes was determined by measuring the concentration of hemoglobin in the supernatant with a microplate photometer Multiskan FC (Thermo Fisher Scientific, Waltham, MA, USA) at 570 nm. The effective dose causing 50% of erythrocytes hemolysis (ED50) was calculated using the computer program SigmaPlot 10.0. All experiments were made in triplicate, p < 0.01.

JB6 Cl41 cells [6] = assay: Soft agar assay, EGF-induced neoplastic cell transformation; type: cell-based, mouse; conditions: Mus musculus, JB6 Cl41, 336 h, compound 0.1 µM, EGF 1 ng/mL, soft agar, 2 weeks, vs positive control; read-out: inhibition of EGF-induced neoplastic transformation of JB6 Cl41 cells
Procedure: (§2) JB6 Cl41 cells (2.4 × 10^4) were exposed to epidermal growth factor (EGF) (1 ng/mL) or phorbol 12-myristate 13-acetate (TPA) (10 ng/mL) and treated either with DMSO (control) or the triterpene glycosides 1–9 from S. pacificus (0.1, 0.5, and 1 µM) in 1 mL of 0.3% basal medium Eagle (BME) agar containing 10% FBS, 2 mM L-glutamine, and 25 µg/mL gentamicin (agar mix). The cultures were maintained in a humidified atmosphere with 5% CO2 at 37 °C for 14 days, and the cell’s colonies were scored using a microscope, Motic AE 20 (XiangAn, Xiamen, China), and the ImageJ software bundled with 64-bit Java 1.8.0_112 (NIH, Bethesda, MD, USA). To determine the effect of investigated compounds on neoplastic cell transformation induced by ionizing radiation (X-ray or UVB), JB6 Cl41 cells (3 × 10^5/dish) were seeded in 60 mm dishes and cultured for 24 h at 37 °C in 5% CO2 incubator. Then, the cells were exposed to X-rays (X-ray system XPERT 80 (KUB Technologies, Inc, Milford, CT, USA)) at dose of 0.5 Gy or UVB (wavelengths below 312 nm) (Bio-Link UV irradiation system, Vilber, France) at dose of 0.3 J/cm^2 three times a week for 3 weeks. Irradiated JB6 Cl41 cells (2.4 × 10^4) were treated either with DMSO (control) or the triterpene glycosides 1–9 from S. pacificus (0.1, 0.5, and 1 µM) in 1 mL of agar mix. The cultures were maintained in a humidified atmosphere with 5% CO2 at 37 °C for 14 days, and the cell’s colonies were scored using a microscope, Motic AE 20 (XiangAn, Xiamen 361101, China), and the ImageJ software bundled with 64-bit Java 1.8.0_112 (NIH, Bethesda, MD, USA).

JB6 Cl41 cells [7] = assay: Soft agar assay, TPA-induced neoplastic cell transformation; type: cell-based, mouse; conditions: Mus musculus, JB6 Cl41, 336 h, compound 0.1 µM, TPA 10 ng/mL, soft agar, 2 weeks, vs positive control; read-out: inhibition of TPA-induced neoplastic transformation of JB6 Cl41 cells
Procedure: as §2

JB6 Cl41 cells [8] = assay: Soft agar assay, X-ray-induced neoplastic cell transformation; type: cell-based, mouse; conditions: Mus musculus, JB6 Cl41, 504 h; compound 0.1 µM, X-rays 0.5 Gy three times a week for 3 weeks, soft agar; read-out: inhibition of X-ray-induced cell transformation (JB6 Cl41 colonies formation)
Procedure: as §2

JB6 Cl41 cells [9] = assay: Soft agar assay, UVB-induced neoplastic cell transformation; type: cell-based, mouse; conditions: compound 0.1 µM, UVB 0.3 J/cm^2 three times a week for 3 weeks, soft agar
Procedure: as §2

SK-MEL-2 cells = assay: Soft agar assay, colony formation of cancer cells; type: cell-based, human; conditions: compound 0.1 µM, 14 days
Procedure: SK-MEL-2 cells (2.4 × 10^4) were treated either with DMSO (control) or the triterpene glycosides 1–9 from S. pacificus (0.1 µM) in 1 mL of agar mix. After 14 days, colonies of cancer cells were scored as described above.

[10] = tested on: colorectal carcinoma HT-29 cells; conditions: non-toxic concentration of 0.5 μM; cited from earlier work
melanoma RPMI-7951 cells = conditions: non-toxic concentration of 0.5 μM; cited from earlier work
[11] = tested on: breast cancer MDA-MB-231 cells; conditions: non-toxic concentration of 0.5 μM; cited from earlier work

| Compound | IC50 [1] [µM] | IC50 [2] [µM] | IC50 ([3]; Homo sapiens, SK-MEL-28, 24 h, MTS assay, 24 h, read-out: IC50, cell viability SK-MEL-28) [µM] | SI (selectivity index) SK-MEL-28 ([3]; IC50 JB6 Cl41 / IC50 SK-MEL-28) | IC50 [4] [µM] | ED50, effective dose causing 50% of erythrocytes hemolysis [5] [µM] | inhibition at 0.1 µM (JB6 Cl41 cells [6]) [%] | inhibition at 0.1 µM (JB6 Cl41 cells [7]) [%] | inhibition at 0.1 µM (JB6 Cl41 cells [8]) [%] | inhibition of UVB-induced neoplastic cell transformation (decrease of colonies number) (JB6 Cl41 cells [9]) | decrease of colonies number of SK-MEL-2 cells (colony formation) (SK-MEL-2 cells) [%] | suppression of colony formation of HT-29 cells [10] | suppression of colony formation of RPMI-7951 cells (melanoma RPMI-7951 cells) | suppression of colony formation of MDA-MB-231 cells [11] |
| --- | --- | --- | --- | --- | --- | --- | --- | --- | --- | --- | --- | --- | --- | --- |
| C=C(C)C1C2CC3(C)C4=CCC5C(C)(C)C(OC6OCC(O)C(O)C6OC6OC(C)C(OC7OC(CO)C(O)C(O)C7O)C(O)C6OC6OCC(O)C(O)C6O)CCC5(C)C4CCC13C(=O)O2 [Compound 8, 3β-O-{β-D-glucopyranosyl-(1→4)-[β-D-xylopyranosyl-(1→2)]-β-D-quinovopyranosyl-(1→2)-β-D-xylopyranosyl}-23,24,25,26,27-pentanor-5α-lanosta-7,20(22)-diene-18(16)-lactone] | 32.8 ± 2.8 | > 50 | 42 ± 0.4 | 0.8 | > 50 | 6.16 ± 0.05 | 10 | 20 | < 15 | not effective | 3 | – | – | – |
| CO[C@@H]1[C@@H](O)[C@H](O[C@@H]2[C@@H](O)[C@H](O[C@H]3[C@H](O)[C@@H](O[C@@H]4OC[C@@H](O)[C@H](O)[C@H]4O)[C@H](O[C@H]4[C@H](O[C@H]5CC[C@]6(C)[C@@H]7CCC89C(=O)O[C@@](C)(/C=C\C=C(C)C)[C@H]8[C@@H](OC(C)=O)C[C@@]9(C)C7=CC[C@H]6C5(C)C)OC[C@@H](O)[C@@H]4O)O[C@@H]3C)O[C@H](CO)[C@H]2O)OC[C@H]1O (some centres unmarked) [cucumarioside C1] | – | – | – | – | – | – | – | – | – | – | – | almost completely suppressed | almost completely suppressed | almost completely suppressed |
| COC1C(O)COC(OC2C(O)C(CO)OC(OC3C(C)OC(OC4C(OC5CCC6(C)C7CCC89C(=O)OC(C)(/C=C/C=C(C)C)C8C(OC(C)=O)CC9(C)C7=CCC6C5(C)C)OCC(O)C4O)C(OC4OCC(O)C(O)C4O)C3O)C2O)C1O (centres unmarked) [cucumarioside C2] | – | – | – | – | – | – | – | – | – | – | – | almost completely suppressed | almost completely suppressed | almost completely suppressed |
| pacificusoside C | – | – | – | – | – | – | – | – | – | – | – | almost completely suppressed | almost completely suppressed | almost completely suppressed |
